Legend:
[1] = target: Serine/threonine-protein kinase B-raf (Homo sapiens) (UniProt P15056); conditions: Compound concentration 1000.0 nM
[2] = target: Insulin receptor (Homo sapiens, UniProt P06213); conditions: Compound concentration 1000.0 nM
[3] = target: Citron Rho-interacting kinase (Homo sapiens) (UniProt O14578); conditions: Compound concentration 1000.0 nM
[4] = target: 5-hydroxytryptamine receptor 1E (Homo sapiens) (UniProt P28566); conditions: Compound concentration 10.0 uM
[5] = target: Serine/threonine-protein kinase STK11 (Homo sapiens) (UniProt Q15831); conditions: Compound concentration 1000.0 nM
[6] = target: Bone morphogenetic protein receptor type-1A (Homo sapiens) (UniProt P36894); conditions: Compound concentration 1000.0 nM
[7] = target: RAC-beta serine/threonine-protein kinase (Homo sapiens) (UniProt P31751); conditions: Compound concentration 1000.0 nM
[8] = target: Phosphatidylinositol 4,5-bisphosphate 3-kinase catalytic subunit beta isoform (Homo sapiens) (UniProt P42338); conditions: Compound concentration 1000.0 nM
[9] = target: MAP/microtubule affinity-regulating kinase 3 (Homo sapiens) (UniProt P27448); conditions: Compound concentration 1000.0 nM
[10] = target: RAF proto-oncogene serine/threonine-protein kinase (Homo sapiens) (UniProt P04049); conditions: Compound concentration 1000.0 nM
[11] = target: Transient receptor potential cation channel subfamily M member 6 (Homo sapiens) (UniProt Q9BX84); conditions: Compound concentration 1000.0 nM
[12] = target: Serine/threonine-protein kinase BRSK2 (Homo sapiens) (UniProt Q8IWQ3); conditions: Compound concentration 1000.0 nM
[13] = tested on: Phosphatidylinositol 4,5-bisphosphate 3-kinase catalytic subunit alpha isoform (Homo sapiens), P42336 [H1047Y]; conditions: Compound concentration 1000.0 nM
[14] = target: T1, Muscarinic acetylcholine receptor M5 (Homo sapiens) (UniProt P08912); conditions: Compound concentration 10.0 uM
T1 sequence (whole entry): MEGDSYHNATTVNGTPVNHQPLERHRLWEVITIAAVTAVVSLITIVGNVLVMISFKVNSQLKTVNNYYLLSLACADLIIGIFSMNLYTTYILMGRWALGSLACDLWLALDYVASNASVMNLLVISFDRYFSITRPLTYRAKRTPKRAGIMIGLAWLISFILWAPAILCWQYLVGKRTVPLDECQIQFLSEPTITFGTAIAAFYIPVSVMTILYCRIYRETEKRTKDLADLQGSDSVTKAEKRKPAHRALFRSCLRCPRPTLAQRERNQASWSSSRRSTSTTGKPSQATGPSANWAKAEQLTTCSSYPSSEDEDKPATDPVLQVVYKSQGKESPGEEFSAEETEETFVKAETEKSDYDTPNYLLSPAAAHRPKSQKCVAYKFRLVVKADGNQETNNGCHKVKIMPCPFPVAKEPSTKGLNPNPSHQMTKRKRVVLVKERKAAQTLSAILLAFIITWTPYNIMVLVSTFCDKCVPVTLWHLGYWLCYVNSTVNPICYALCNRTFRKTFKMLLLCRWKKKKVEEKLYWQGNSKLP

[15] = target: Serine/threonine-protein kinase Chk2 (Homo sapiens) (UniProt O96017); conditions: Compound concentration 1000.0 nM
[16] = target: Ribosomal protein S6 kinase beta-1 (Homo sapiens) (UniProt P23443); conditions: Compound concentration 1000.0 nM
[17] = target: T2, Alpha-2B adrenergic receptor (Homo sapiens) (UniProt P18089); conditions: Compound concentration 10.0 uM
T2 sequence (whole entry): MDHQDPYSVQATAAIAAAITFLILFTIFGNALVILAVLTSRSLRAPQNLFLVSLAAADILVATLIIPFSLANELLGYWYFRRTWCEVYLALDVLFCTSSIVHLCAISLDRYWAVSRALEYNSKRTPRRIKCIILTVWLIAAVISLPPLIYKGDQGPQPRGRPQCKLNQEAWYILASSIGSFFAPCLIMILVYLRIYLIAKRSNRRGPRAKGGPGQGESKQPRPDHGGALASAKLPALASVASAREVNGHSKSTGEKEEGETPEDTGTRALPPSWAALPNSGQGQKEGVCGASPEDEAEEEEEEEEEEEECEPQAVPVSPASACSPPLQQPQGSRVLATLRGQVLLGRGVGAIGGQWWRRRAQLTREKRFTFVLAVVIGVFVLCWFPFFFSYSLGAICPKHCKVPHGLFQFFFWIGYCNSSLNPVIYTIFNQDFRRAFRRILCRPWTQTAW

[18] = target: Non-receptor tyrosine-protein kinase TYK2 (Homo sapiens) (UniProt P29597); conditions: Compound concentration 1000.0 nM
[19] = target: Serine/threonine-protein kinase PRP4 homolog (Homo sapiens) (UniProt Q13523); conditions: Compound concentration 1000.0 nM
[20] = tested on: Tyrosine-protein kinase ABL1 (Homo sapiens), P00519 [M351T]; conditions: Compound concentration 1000.0 nM
[21] = target: Serine/threonine-protein kinase NLK (Homo sapiens) (UniProt Q9UBE8); conditions: Compound concentration 1000.0 nM
[22] = target: Proto-oncogene tyrosine-protein kinase ROS (Homo sapiens) (UniProt P08922); conditions: Compound concentration 1000.0 nM
[23] = target: Serine/threonine-protein kinase PAK 3 (Homo sapiens) (UniProt O75914); conditions: Compound concentration 1000.0 nM
[24] = target: Aurora kinase B (Homo sapiens) (UniProt Q96GD4); conditions: Compound concentration 1000.0 nM
[25] = target: Sigma intracellular receptor 2 (Homo sapiens, UniProt Q5BJF2); conditions: Compound concentration 10.0 uM
[26] = target: Calcium/calmodulin-dependent protein kinase type II subunit beta (Homo sapiens) (UniProt Q13554); conditions: Compound concentration 1000.0 nM
[27] = target: Platelet-derived growth factor receptor beta (Homo sapiens) (UniProt P09619); conditions: Compound concentration 1000.0 nM
[28] = target: Protein kinase C delta type (Homo sapiens) (UniProt Q05655); conditions: Compound concentration 1000.0 nM
[29] = target: Mitogen-activated protein kinase 15 (Homo sapiens) (UniProt Q8TD08); conditions: Compound concentration 1000.0 nM
[30] = target: Dual specificity mitogen-activated protein kinase kinase 3 (Homo sapiens) (UniProt P46734); conditions: Compound concentration 1000.0 nM
[31] = target: Vascular endothelial growth factor receptor 3 (Homo sapiens) (UniProt P35916); conditions: Compound concentration 1000.0 nM
[32] = target: Inhibitor of nuclear factor kappa-B kinase subunit alpha (Homo sapiens) (UniProt O15111); conditions: Compound concentration 1000.0 nM

Non-receptor tyrosine-protein kinase TYK2 (Homo sapiens), sequence (P29597 whole entry): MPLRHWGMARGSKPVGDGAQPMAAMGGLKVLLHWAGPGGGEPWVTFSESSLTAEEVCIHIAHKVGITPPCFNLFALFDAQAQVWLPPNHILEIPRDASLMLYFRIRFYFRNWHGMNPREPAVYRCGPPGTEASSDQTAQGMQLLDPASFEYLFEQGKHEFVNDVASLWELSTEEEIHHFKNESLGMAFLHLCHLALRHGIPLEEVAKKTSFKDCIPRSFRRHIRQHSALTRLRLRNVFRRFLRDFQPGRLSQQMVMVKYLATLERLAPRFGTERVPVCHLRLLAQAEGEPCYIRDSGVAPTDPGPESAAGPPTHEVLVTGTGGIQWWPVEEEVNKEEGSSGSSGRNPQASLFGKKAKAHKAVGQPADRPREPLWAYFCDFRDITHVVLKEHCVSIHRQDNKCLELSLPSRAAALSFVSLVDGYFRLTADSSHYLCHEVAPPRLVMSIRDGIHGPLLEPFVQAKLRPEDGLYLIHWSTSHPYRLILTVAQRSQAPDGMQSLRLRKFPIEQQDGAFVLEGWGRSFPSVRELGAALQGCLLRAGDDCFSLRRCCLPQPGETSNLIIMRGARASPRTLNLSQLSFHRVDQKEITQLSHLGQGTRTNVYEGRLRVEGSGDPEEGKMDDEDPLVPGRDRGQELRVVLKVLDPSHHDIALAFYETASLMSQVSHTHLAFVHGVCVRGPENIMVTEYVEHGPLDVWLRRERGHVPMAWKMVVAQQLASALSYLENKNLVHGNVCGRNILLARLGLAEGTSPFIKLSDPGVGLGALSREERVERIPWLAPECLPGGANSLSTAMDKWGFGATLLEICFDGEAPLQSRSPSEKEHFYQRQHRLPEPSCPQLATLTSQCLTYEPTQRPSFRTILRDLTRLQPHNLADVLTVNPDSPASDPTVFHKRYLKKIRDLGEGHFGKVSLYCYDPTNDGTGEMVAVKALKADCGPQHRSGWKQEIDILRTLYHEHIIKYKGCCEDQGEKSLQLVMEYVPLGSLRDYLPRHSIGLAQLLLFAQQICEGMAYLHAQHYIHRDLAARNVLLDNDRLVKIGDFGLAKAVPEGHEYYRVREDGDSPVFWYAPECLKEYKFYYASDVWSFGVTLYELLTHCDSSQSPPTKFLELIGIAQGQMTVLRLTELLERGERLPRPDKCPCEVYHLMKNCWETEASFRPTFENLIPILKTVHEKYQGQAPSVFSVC
5-hydroxytryptamine receptor 1E (Homo sapiens), sequence (P28566 whole entry): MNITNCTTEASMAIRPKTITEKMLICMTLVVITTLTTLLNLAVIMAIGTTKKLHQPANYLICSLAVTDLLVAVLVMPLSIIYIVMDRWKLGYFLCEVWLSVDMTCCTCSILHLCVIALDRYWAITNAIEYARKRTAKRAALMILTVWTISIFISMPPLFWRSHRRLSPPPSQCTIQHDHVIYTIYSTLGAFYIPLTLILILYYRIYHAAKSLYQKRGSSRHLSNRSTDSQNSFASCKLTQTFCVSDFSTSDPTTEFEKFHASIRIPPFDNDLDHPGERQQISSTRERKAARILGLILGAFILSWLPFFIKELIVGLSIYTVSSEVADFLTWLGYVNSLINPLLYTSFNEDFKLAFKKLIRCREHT
Platelet-derived growth factor receptor beta (Homo sapiens), sequence (P09619 whole entry): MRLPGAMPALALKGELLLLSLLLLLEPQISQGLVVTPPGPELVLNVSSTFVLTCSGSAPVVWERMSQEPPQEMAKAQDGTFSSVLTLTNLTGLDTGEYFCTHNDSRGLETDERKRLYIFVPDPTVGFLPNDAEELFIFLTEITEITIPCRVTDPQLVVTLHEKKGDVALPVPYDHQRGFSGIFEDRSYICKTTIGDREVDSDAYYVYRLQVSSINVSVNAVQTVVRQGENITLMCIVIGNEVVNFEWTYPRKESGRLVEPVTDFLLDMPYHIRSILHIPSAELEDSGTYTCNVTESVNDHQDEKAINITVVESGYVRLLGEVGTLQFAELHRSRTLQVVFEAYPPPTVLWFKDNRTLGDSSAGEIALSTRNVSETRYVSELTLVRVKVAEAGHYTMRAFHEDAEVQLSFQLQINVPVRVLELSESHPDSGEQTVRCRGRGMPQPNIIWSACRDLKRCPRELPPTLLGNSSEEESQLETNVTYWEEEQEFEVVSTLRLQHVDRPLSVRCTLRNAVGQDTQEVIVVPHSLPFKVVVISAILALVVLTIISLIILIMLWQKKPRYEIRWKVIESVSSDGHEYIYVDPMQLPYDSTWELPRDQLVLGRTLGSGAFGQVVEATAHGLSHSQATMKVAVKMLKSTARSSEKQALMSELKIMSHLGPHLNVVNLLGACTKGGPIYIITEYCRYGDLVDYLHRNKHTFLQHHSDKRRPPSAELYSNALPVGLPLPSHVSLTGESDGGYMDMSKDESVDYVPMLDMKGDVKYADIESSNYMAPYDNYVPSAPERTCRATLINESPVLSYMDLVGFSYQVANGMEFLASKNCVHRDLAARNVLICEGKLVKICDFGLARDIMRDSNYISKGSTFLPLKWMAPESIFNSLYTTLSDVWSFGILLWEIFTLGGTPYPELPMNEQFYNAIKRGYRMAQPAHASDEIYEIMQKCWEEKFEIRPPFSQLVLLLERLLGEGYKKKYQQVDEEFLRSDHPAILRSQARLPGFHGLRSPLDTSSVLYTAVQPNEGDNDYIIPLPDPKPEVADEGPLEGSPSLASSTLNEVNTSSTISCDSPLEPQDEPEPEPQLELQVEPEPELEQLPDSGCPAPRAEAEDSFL
Dual specificity mitogen-activated protein kinase kinase 3 (Homo sapiens), sequence (P46734 whole entry): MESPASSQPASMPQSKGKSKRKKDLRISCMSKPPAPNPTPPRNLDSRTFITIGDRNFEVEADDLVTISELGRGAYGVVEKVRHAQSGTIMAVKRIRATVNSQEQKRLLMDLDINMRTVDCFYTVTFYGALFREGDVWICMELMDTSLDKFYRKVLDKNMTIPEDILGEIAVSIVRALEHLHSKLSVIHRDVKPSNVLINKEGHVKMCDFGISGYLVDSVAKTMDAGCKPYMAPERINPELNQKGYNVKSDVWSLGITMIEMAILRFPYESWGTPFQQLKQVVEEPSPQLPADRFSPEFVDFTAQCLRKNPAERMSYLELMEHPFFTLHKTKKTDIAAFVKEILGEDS
Mitogen-activated protein kinase 15 (Homo sapiens), sequence (Q8TD08 whole entry): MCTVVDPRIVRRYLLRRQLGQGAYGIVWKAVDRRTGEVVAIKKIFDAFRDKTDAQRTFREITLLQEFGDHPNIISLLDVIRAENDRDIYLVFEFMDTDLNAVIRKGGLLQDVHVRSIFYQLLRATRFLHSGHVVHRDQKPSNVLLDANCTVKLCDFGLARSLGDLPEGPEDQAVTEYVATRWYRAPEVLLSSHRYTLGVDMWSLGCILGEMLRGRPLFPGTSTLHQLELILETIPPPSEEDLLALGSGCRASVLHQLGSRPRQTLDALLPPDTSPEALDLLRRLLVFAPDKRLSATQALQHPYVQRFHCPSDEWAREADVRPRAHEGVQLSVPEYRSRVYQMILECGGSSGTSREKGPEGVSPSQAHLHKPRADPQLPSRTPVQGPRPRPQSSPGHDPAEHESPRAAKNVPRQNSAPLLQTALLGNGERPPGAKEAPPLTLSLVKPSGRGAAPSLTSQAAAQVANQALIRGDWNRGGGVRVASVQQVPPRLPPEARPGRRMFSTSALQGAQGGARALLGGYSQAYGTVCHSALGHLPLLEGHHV
Phosphatidylinositol 4,5-bisphosphate 3-kinase catalytic subunit beta isoform (Homo sapiens), sequence (P42338 whole entry, looked up, canonical isoform): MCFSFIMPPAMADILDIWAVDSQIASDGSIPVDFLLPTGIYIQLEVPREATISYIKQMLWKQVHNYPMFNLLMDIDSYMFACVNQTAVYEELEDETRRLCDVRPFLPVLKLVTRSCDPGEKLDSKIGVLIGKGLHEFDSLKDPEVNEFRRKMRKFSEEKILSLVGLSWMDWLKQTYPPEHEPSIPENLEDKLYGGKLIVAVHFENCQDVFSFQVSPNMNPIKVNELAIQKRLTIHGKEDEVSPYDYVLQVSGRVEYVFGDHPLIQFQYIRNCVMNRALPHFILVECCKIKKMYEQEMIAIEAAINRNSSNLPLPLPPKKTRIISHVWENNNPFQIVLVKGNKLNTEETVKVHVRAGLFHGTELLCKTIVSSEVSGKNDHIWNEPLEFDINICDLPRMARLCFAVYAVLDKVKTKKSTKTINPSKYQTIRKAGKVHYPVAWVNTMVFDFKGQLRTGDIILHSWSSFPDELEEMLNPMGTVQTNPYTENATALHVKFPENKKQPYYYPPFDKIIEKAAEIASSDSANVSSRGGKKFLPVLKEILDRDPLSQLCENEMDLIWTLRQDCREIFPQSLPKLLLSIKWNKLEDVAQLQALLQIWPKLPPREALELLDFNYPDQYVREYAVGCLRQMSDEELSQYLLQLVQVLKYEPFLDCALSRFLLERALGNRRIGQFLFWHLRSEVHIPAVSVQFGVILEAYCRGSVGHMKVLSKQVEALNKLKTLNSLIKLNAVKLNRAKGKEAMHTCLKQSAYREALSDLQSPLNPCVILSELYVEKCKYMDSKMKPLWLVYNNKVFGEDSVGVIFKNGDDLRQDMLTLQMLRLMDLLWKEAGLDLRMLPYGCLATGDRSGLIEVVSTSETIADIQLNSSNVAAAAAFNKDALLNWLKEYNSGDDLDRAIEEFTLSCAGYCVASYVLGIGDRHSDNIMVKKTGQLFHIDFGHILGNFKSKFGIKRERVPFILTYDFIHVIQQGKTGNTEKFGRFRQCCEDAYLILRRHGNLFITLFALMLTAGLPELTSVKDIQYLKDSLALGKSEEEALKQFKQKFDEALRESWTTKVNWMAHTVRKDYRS
Sigma intracellular receptor 2, sequence (Q5BJF2 whole entry): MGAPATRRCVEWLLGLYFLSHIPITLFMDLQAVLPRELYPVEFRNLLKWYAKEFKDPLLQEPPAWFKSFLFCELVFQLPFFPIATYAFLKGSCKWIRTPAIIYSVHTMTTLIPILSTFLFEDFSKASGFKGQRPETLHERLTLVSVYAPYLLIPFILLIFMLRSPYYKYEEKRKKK

Q: How did the residual activity [1] turn out when `O=C(O)c1cc(-c2ccc(C3CCNCC3)cc2)c2ccc(-c3ccc(C(F)(F)F)cc3)cc2c1` [PPTN] was run?
A: 100%

Q: What about the residual activity [2] of the same compound?
A: 100%

Q: And the residual activity [3]?
A: 100%

Q: And the inhibition [4]?
A: 13.4%

Q: What about the residual activity [5] of the same compound?
A: 100%

Q: And the residual activity [6]?
A: 100%

Q: And the residual activity [7]?
A: 95%

Q: And the residual activity [8]?
A: 100%

Q: And the residual activity [9]?
A: 100%

Q: And the residual activity [10]?
A: 70%

Q: And the residual activity [11]?
A: 100%

Q: What about the residual activity [12] of the same compound?
A: 100%

Q: And the residual activity [13]?
A: 84%

Q: And the inhibition [14]?
A: 10.1%

Q: What about the residual activity [15] of the same compound?
A: 100%

Q: And the residual activity [16]?
A: 100%

Q: And the inhibition [17]?
A: 85.4%

Q: And the residual activity [18]?
A: 100%

Q: And the residual activity [19]?
A: 100%

Q: And the residual activity [20]?
A: 100%

Q: What about the residual activity [21] of the same compound?
A: 100%

Q: What about the residual activity [22] of the same compound?
A: 100%

Q: And the residual activity [23]?
A: 100%

Q: What about the residual activity [24] of the same compound?
A: 100%

Q: And the inhibition [25]?
A: 95.6%

Q: What about the residual activity [26] of the same compound?
A: 100%

Q: What about the residual activity [27] of the same compound?
A: 100%

Q: What about the residual activity [28] of the same compound?
A: 100%

Q: And the residual activity [29]?
A: 100%

Q: And the residual activity [30]?
A: 100%

Q: And the residual activity [31]?
A: 100%

Q: And the residual activity [32]?
A: 87%

Q: `Cc1c(C(=O)O)cc(-c2ccc(C3CCNCC3)cc2)c2ccc(-c3ccc(C(F)(F)F)cc3)cc12` [PPTN-NC] was tested. Which residual activity [1] did it give?
A: 100%

Q: What about the residual activity [2] of the same compound?
A: 100%

Q: What about the residual activity [3] of the same compound?
A: 100%

Q: And the inhibition [4]?
A: 3.48%

Q: What about the residual activity [5] of the same compound?
A: 94%

Q: What about the residual activity [6] of the same compound?
A: 100%

Q: And the residual activity [7]?
A: 100%

Q: And the residual activity [8]?
A: 100%

Q: And the residual activity [9]?
A: 100%

Q: What about the residual activity [10] of the same compound?
A: 80%

Q: And the residual activity [11]?
A: 100%

Q: And the residual activity [12]?
A: 100%

Q: And the residual activity [13]?
A: 100%

Q: And the inhibition [14]?
A: 10.1%

Q: And the residual activity [15]?
A: 100%

Q: What about the residual activity [16] of the same compound?
A: 100%

Q: What about the inhibition [17] of the same compound?
A: 79%

Q: And the residual activity [18]?
A: 100%

Q: And the residual activity [19]?
A: 100%

Q: What about the residual activity [20] of the same compound?
A: 100%

Q: What about the residual activity [21] of the same compound?
A: 100%

Q: What about the residual activity [22] of the same compound?
A: 100%

Q: What about the residual activity [23] of the same compound?
A: 100%

Q: What about the residual activity [24] of the same compound?
A: 100%

Q: And the inhibition [25]?
A: 92.7%

Q: What about the residual activity [26] of the same compound?
A: 100%

Q: And the residual activity [27]?
A: 100%

Q: And the residual activity [28]?
A: 100%

Q: And the residual activity [29]?
A: 100%

Q: What about the residual activity [30] of the same compound?
A: 100%

Q: What about the residual activity [31] of the same compound?
A: 100%

Q: And the residual activity [32]?
A: 98%

— ChEMBL document CHEMBL4507292 (2021)
